For 35 molecules, EC50 results are on record in patent US8815909B2, “Diaminocyclohexane compounds and uses thereof” (Bristol-Myers Squibb Company, priority 2011, dated 2014).

As usually defined, the EC50 is the concentration at which the effect is half-maximal.

For the experiment, the target named is T1, human Y4 receptor (Homo sapiens, UniProt P50391).
T1 construct: expressed in transfected cells
Kind of experiment: NPY4 cAMP HTRF Agonist Assay (inhibitory cAMP assay, Gi activation by Y4 agonism). Particulars: human Y4 receptor, cAMP; read-out: hY4 CAMP EC50. The format is cell-based. In short, it runs like this:
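CHO cells stably expressing human Y4, 5000/well, exposed to compound with forskolin and IBMX in PBS for 30 min at room temperature. Gi-mediated inhibition of cAMP then measured by HTRF after 1 h with d2-conjugate and anti-cAMP cryptate.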

T1 sequence (P50391 whole entry): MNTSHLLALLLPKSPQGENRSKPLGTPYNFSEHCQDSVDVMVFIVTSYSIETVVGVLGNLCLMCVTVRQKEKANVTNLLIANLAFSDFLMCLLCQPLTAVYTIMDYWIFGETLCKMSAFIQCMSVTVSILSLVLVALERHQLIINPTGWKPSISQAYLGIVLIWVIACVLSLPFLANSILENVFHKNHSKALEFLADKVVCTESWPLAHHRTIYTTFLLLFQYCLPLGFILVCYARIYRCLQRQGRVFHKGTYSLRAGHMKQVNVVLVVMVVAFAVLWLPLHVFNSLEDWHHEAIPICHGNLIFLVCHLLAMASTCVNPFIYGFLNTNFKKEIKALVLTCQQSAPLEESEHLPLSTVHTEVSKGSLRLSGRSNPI

Take `FC(F)(F)Oc1ccc(-c2cnc(N[C@@H]3CCCC[C@H]3N[C@H]3CCCN(c4ccc5ncnn5c4)C3)o2)cc1` [Example 482]: the EC50 came to 107 nM.

Consider `COC(=O)Nc1cccc(-c2cnc(N[C@@H]3CCCC[C@H]3N[C@H]3CCCN(c4ccc5ncnn5c4)C3)o2)c1` [Example 483], for which the EC50 worked out at 4 nM.

Regarding `COC(=O)c1cccc(-c2cnc(N[C@@H]3CCCC[C@H]3N[C@H]3CCCN(c4ccc5ncnn5c4)C3)o2)c1` [Example 484], the EC50 came to 312 nM.

In the case of `CNC(=O)c1cccc(-c2cnc(N[C@@H]3CCCC[C@H]3N[C@H]3CCCN(c4ccc5ncnn5c4)C3)o2)c1` [Example 485], the EC50 is 58 nM.

Take `O=C(NC1CC1)c1cccc(-c2cnc(N[C@@H]3CCCC[C@H]3N[C@H]3CCCN(c4ccc5ncnn5c4)C3)o2)c1` [Example 486]: the EC50 turned out to be 78 nM.

In the case of `O=C(Nc1cccc(-c2cnc(N[C@@H]3CCCC[C@H]3N[C@H]3CCCN(c4ccc5ncnn5c4)C3)o2)c1)C1CC1` [Example 487], the EC50 amounted to 16 nM.

As for `CC(C)(C)OC(=O)Nc1cccc(-c2cnc(N[C@@H]3CCCC[C@H]3N[C@H]3CCCN(c4ccc5ncnn5c4)C3)o2)c1` [Example 488], the EC50 worked out at 699 nM.

As for `Cc1nc2ccc(N3CCC[C@H](N[C@@H]4CCCC[C@H]4Nc4ncc(-c5cccc(C(N)=O)c5)o4)C3)cn2n1` [Example 489], the EC50 stood at 3 nM.

Regarding `COC(=O)Nc1cccc(-c2cnc(N[C@@H]3CCCC[C@H]3N[C@H]3CCCN(c4ccc5nc(C)nn5c4)C3)o2)c1` [Example 490], the EC50 stood at 1 nM.

With `Cc1nc2ccc(N3CCC[C@H](N[C@@H]4CCCC[C@H]4Nc4cc(-c5cccc(C(N)=O)c5)ccn4)C3)cn2n1` [Example 491], the EC50 was found to be 22 nM.

With `Cc1nc2ccc(N3CCC[C@H](N[C@@H]4CCCC[C@H]4Nc4ncc(-c5ccc(F)c(F)c5)o4)C3)cn2n1` [Example 492], the EC50 was 38 nM.

Take `Cc1nc2ccc(N3CCC[C@H](N[C@@H]4CCCC[C@H]4Nc4ncc(-c5ccc(F)cc5F)o4)C3)cn2n1` [Example 493]: the EC50 is 47 nM.

`Cc1nc2ccc(N3CCC[C@H](N[C@@H]4CCCC[C@H]4Nc4ncc(-c5cccc(C(=O)NC6CC6)c5)o4)C3)cn2n1` [Example 494]: the EC50 worked out at 42 nM.

For `COC(=O)c1cccc(-c2cnc(N[C@@H]3CCCC[C@H]3N[C@H]3CCCN(c4ccc5nc(C)nn5c4)C3)o2)c1` [Example 495], the EC50 is 49 nM.

Regarding `CNC(=O)c1cccc(-c2cnc(N[C@@H]3CCCC[C@H]3N[C@H]3CCCN(c4ccc5nc(C)nn5c4)C3)o2)c1` [Example 496], the EC50 was found to be 4 nM.

With `Cc1nc2ccc(N3CCC[C@H](N[C@@H]4CCCC[C@H]4Nc4ncc(-c5cc(F)c(F)cc5F)o4)C3)cn2n1` [Example 497], the EC50 was 46 nM.

Take `Cc1nc2ccc(N3CCC[C@H](N[C@@H]4CCCC[C@H]4Nc4ncc(-c5cc(F)c(F)c(F)c5)o4)C3)cn2n1` [Example 498]: the EC50 is 63 nM.

As to `Cn1nnc(-c2ccc(N3CCC[C@H](N[C@@H]4CCCC[C@H]4Nc4ncc(-c5ccc(OC(F)(F)F)cc5)o4)C3)cc2)n1` [Example 499], the EC50 was 1.4 nM.

As for `NC(=O)c1cccc(-c2cnc(N[C@@H]3CCCC[C@H]3N[C@H]3CCCN(c4ccc(-n5cncn5)cc4)C3)o2)c1` [Example 500], the EC50 is 101 nM.

With `Cn1nnc(-c2ccc(N3CCC[C@H](N[C@@H]4CCCC[C@H]4Nc4cc(Br)ccn4)C3)cc2)n1` [Example 501], the EC50 was determined as 84 nM.

For `Cn1nnnc1-c1ccc(N2CCC[C@H](N[C@@H]3CCCC[C@H]3Nc3nccc(-c4ccccc4)n3)C2)cc1` [Example 502], the EC50 was 98 nM.

As for `Cn1nnc(-c2ccc(N3CCC[C@H](N[C@@H]4CCCC[C@H]4Nc4cc(-c5ccc(OC(F)F)cc5)ccn4)C3)cc2)n1` [Example 503], the EC50 is 150 nM.

As to `Cn1nnc(-c2ccc(N3CCC[C@H](N[C@@H]4CCCC[C@H]4Nc4cc(-c5cccc(O)c5)ccn4)C3)cc2)n1` [Example 504], the 50% effective concentration (EC50) turned out to be 0.3 nM.

With `Cn1nnc(-c2ccc(N3CCC[C@H](N[C@@H]4CCCC[C@H]4Nc4cc(-c5cccc(C(N)=O)c5)ccn4)C3)cc2)n1` [Example 505], the EC50 was 9 nM.

As for `CC(=O)Nc1cccc(-c2ccnc(N[C@@H]3CCCC[C@H]3N[C@H]3CCCN(c4ccc(-c5nnn(C)n5)cc4)C3)c2)c1` [Example 506], the EC50 was 0.2 nM.

`Cn1nnc(-c2ccc(N3CCC[C@H](N[C@@H]4CCCC[C@H]4Nc4cc(-c5cccc(NS(C)(=O)=O)c5)ccn4)C3)cc2)n1` [Example 507]: the EC50 came to 6 nM.

For the molecule `Cn1nnnc1-c1ccc(N2CCC[C@H](N[C@@H]3CCCC[C@H]3Nc3cc(-c4cccc(C(N)=O)c4)ccn3)C2)cc1` [Example 508], the EC50 worked out at 21 nM.

Turning to `C[C@]1(N[C@@H]2CCCC[C@H]2Nc2ncc(-c3ccc(OC(F)(F)F)cc3)o2)CCCN(c2ccc(O)cc2)C1` [Example 509], the EC50 came to 128 nM.

Regarding `FC(F)(F)Oc1ccc(-c2cnc(N[C@@H]3CCCC[C@H]3N[C@H]3C[C@@H]4C[C@H]3N(c3cc(Cl)ncn3)C4)o2)cc1` [Example 510], the concentration giving a half-maximal response (EC50) was 82 nM.

Take `NC(=O)c1cccc(-c2ccnc(N[C@@H]3CCCC[C@H]3N[C@H]3CCCN(c4ccc(-n5cccn5)cc4)C3)c2)c1` [Example 511]: the EC50 amounted to 23 nM.

For the molecule `NC(=O)c1cccc(-c2ccnc(N[C@@H]3CCCC[C@H]3N[C@H]3CCCN(c4ccc(-n5cncn5)cc4)C3)c2)c1` [Example 512], the EC50 amounted to 650 nM.

With `COC(=O)Nc1cccc(-c2ccnc(N[C@@H]3CCCC[C@H]3N[C@H]3CCCN(c4ccc(Br)cc4)C3)c2)c1` [Example 513], the EC50 was 2 nM.

For the molecule `COC(=O)Nc1cccc(-c2ccnc(N[C@@H]3CCCC[C@H]3N[C@H]3CCCN(c4ccc(-c5cccnc5)cc4)C3)c2)c1` [Example 514], the EC50 was 4 nM.

For the molecule `COC(=O)Nc1cccc(-c2ccnc(N[C@@H]3CCCC[C@H]3N[C@H]3CCCN(c4ccc(-c5cncnc5)cc4)C3)c2)c1` [Example 515], the EC50 was 11 nM.

On to `COC(=O)Nc1cccc(-c2ccnc(N[C@@H]3CCCC[C@H]3N[C@H]3CCCN(c4ccc(-c5ccccc5)cc4)C3)c2)c1` [Example 516], for which the EC50 is 17 nM.
